From the NIST ThermoML archive (doi:10.1021/je049556i)

Assays:
[1] = xn = mol fraction of the nth substance listed; conditions: 101 kPa, Liquid
[2] = 101 kPa, Liquid

CC1OC(C)OC(C)O1 (stereo not drawn) [2,4,6-trimethyl-1,3,5-trioxane] + CCCCO
[1]
Conditions | mass density, 298.15 K [kg/m3] | mass density, 303.15 K [kg/m3] | mass density, 308.15 K [kg/m3] | viscosity, 298.15 K [mPa·s] | viscosity, 303.15 K [mPa·s] | viscosity, 308.15 K [mPa·s]
x1 = 0.0289 | 814.71 | 810.8 | 806.91 | 2.46 | 2.164 | 1.917
x1 = 0.0582 | 823.46 | 819.5 | 815.51 | 2.311 | 2.037 | 1.809
x1 = 0.0804 | 829.94 | 825.93 | 821.87 | 2.204 | 1.948 | 1.732
x1 = 0.0999 | 835.53 | 831.47 | 827.35 | 2.116 | 1.873 | 1.668
x1 = 0.194 | 861.02 | 856.78 | 852.47 | 1.756 | 1.568 | 1.406
x1 = 0.3007 | 886.93 | 882.65 | 878.35 | 1.471 | 1.324 | 1.197
x1 = 0.4056 | 909.58 | 905 | 900.34 | 1.302 | 1.177 | 1.07
x1 = 0.5091 | 928.91 | 924.2 | 919.2 | 1.219 | 1.103 | 1.006
x1 = 0.6218 | 946.67 | 941.75 | 936.55 | 1.193 | 1.077 | 0.983
x1 = 0.6932 | 956.21 | 951.23 | 945.98 | 1.193 | 1.075 | 0.98
x1 = 0.8331 | 972.07 | 966.65 | 960.87 | 1.184 | 1.064 | 0.969
x1 = 0.9165 | 980.1 | 974.5 | 968.65 | 1.143 | 1.03 | 0.938
x1 = 1 | 988.35 | 982.64 | 976.44 | 1.107 | 1.001 | 0.907

CCO [ethanol] + CC1OC(C)OC(C)O1
[1], x2 = 0
Conditions | mass density [kg/m3] | viscosity [mPa·s]
298.15 K | 785.06 | 1.083
303.15 K | 780.74 | 0.99
308.15 K | 776.48 | 0.895

CCCO [propan-1-ol] + CC1OC(C)OC(C)O1
[1], x2 = 0
Conditions | mass density [kg/m3] | viscosity [mPa·s]
298.15 K | 799.6 | 1.943
303.15 K | 794.64 | 1.725
308.15 K | 790.53 | 1.537

CCCO [propan-1-ol]
[2]
Conditions | mass density [kg/m3] | viscosity [mPa·s]
298.15 K | 799.6 | 1.943
303.15 K | 794.64 | 1.725
308.15 K | 790.53 | 1.537

CC1OC(C)OC(C)O1 (stereo not drawn) [2,4,6-trimethyl-1,3,5-trioxane] + CCO
[1]
Conditions | mass density, 298.15 K [kg/m3] | mass density, 303.15 K [kg/m3] | mass density, 308.15 K [kg/m3] | viscosity, 298.15 K [mPa·s] | viscosity, 303.15 K [mPa·s] | viscosity, 308.15 K [mPa·s]
x1 = 0.0372 | 802.48 | 798.21 | 793.84 | 1.071 | 0.979 | 0.886
x1 = 0.0801 | 820.65 | 816.3 | 811.97 | 1.059 | 0.966 | 0.876
x1 = 0.1299 | 839.52 | 835.19 | 830.81 | 1.045 | 0.952 | 0.866
x1 = 0.1885 | 859.12 | 854.68 | 850.28 | 1.031 | 0.938 | 0.855
x1 = 0.2589 | 879.57 | 875.01 | 870.45 | 1.016 | 0.924 | 0.844
x1 = 0.3433 | 900.45 | 895.77 | 890.94 | 1.003 | 0.912 | 0.835
x1 = 0.4485 | 922.04 | 917.27 | 912.16 | 0.994 | 0.903 | 0.828
x1 = 0.5823 | 944.05 | 939.04 | 933.74 | 0.995 | 0.904 | 0.829
x1 = 0.6816 | 957.34 | 952.18 | 946.76 | 1.006 | 0.915 | 0.837
x1 = 0.7582 | 966.15 | 960.83 | 955.25 | 1.022 | 0.929 | 0.849
x1 = 0.8003 | 970.54 | 965.15 | 959.44 | 1.033 | 0.939 | 0.857
x1 = 0.8452 | 974.98 | 969.45 | 963.6 | 1.048 | 0.951 | 0.868
x1 = 0.8932 | 979.38 | 973.8 | 967.86 | 1.065 | 0.967 | 0.881
x1 = 0.9446 | 983.9 | 978.26 | 972.13 | 1.088 | 0.986 | 0.897
x1 = 1 | 988.35 | 982.64 | 976.44 | 1.107 | 1.001 | 0.907

CCCCO [butan-1-ol]
[2]
Conditions | mass density [kg/m3] | viscosity [mPa·s]
298.15 K | 805.84 | 2.618
303.15 K | 802 | 2.297
308.15 K | 798.2 | 2.032

CCCCO [butan-1-ol] + CC1OC(C)OC(C)O1
[1], x2 = 0
Conditions | mass density [kg/m3] | viscosity [mPa·s]
298.15 K | 805.84 | 2.618
303.15 K | 802 | 2.297
308.15 K | 798.2 | 2.032

CCO [ethanol]
[2]
Conditions | mass density [kg/m3] | viscosity [mPa·s]
298.15 K | 785.06 | 1.083
303.15 K | 780.74 | 0.99
308.15 K | 776.48 | 0.895

CC1OC(C)OC(C)O1 (stereo not drawn) [2,4,6-trimethyl-1,3,5-trioxane] + CCCO
[1]
Conditions | mass density, 298.15 K [kg/m3] | mass density, 303.15 K [kg/m3] | mass density, 308.15 K [kg/m3] | viscosity, 298.15 K [mPa·s] | viscosity, 303.15 K [mPa·s] | viscosity, 308.15 K [mPa·s]
x1 = 0.0286 | 809.7 | 804.77 | 800.59 | 1.861 | 1.653 | 1.474
x1 = 0.0484 | 816.43 | 811.5 | 807.28 | 1.807 | 1.606 | 1.433
x1 = 0.0743 | 824.91 | 820 | 815.72 | 1.74 | 1.548 | 1.383
x1 = 0.101 | 833.29 | 828.4 | 824.06 | 1.676 | 1.492 | 1.334
x1 = 0.197 | 860.73 | 855.87 | 851.32 | 1.481 | 1.322 | 1.187
x1 = 0.3124 | 888.86 | 883.99 | 879.22 | 1.312 | 1.175 | 1.061
x1 = 0.4052 | 908.29 | 903.38 | 898.44 | 1.219 | 1.096 | 0.994
x1 = 0.527 | 930.22 | 925.2 | 920.07 | 1.145 | 1.034 | 0.942
x1 = 0.5689 | 936.94 | 931.88 | 926.69 | 1.129 | 1.021 | 0.931
x1 = 0.7214 | 958.42 | 953.17 | 947.75 | 1.105 | 1.001 | 0.915
x1 = 0.8026 | 968.19 | 962.8 | 957.27 | 1.105 | 1.002 | 0.915
x1 = 0.8948 | 978.07 | 972.51 | 966.87 | 1.109 | 1.005 | 0.915
x1 = 1 | 988.35 | 982.64 | 976.44 | 1.107 | 1.001 | 0.907

CC1OC(C)OC(C)O1 (stereo not drawn) [2,4,6-trimethyl-1,3,5-trioxane]
[2]
Conditions | mass density [kg/m3] | viscosity [mPa·s]
298.15 K | 988.35 | 1.107
303.15 K | 982.64 | 1.001
308.15 K | 976.44 | 0.907
